In patent publication US11149030B2, “Plants having increased tolerance to herbicides” (BASF AGRO B.V., priority 2016, dated 2021):
Several values for one entry are separate records, joined by “and”; a condition that tells them apart may be missing. Equal entries are not always repeated.

Test system: T2 soybean events expressing the indicated Amaranthus PPO2 variant transgene
Assay: Soybean PPO inhibitor tolerance testing, injury score (Table C)
Format: in vivo, Soybean cv Jake
Details: V2 stage, 3 days after treatment, individual plants
Procedure: Soybean cv Jake is transformed as previously described by Siminszky et al., Phytochem Rev. 5:445-458 (2006). After regeneration, transformants are transplanted to soil in small pots, placed in growth chambers (16 hr day/8 hr night; 25° C. day/23° C. night; 65% relative humidity; 130-150 microE m-2 s-1) and subsequently tested for the presence of the T-DNA via Taqman analysis. After a few weeks, healthy, transgenic positive, single copy events are transplanted to larger pots and allowed to grow in the growth chamber. An optimal shoot for cutting is about 3-4 inches tall, with at least two nodes present. Each cutting is taken from the original transformant (mother plant) and dipped into rooting hormone powder (indole-3-butyric acid, IBA). The cutting is then placed in oasis wedges inside a bio-dome. The mother plant is taken to maturity in the greenhouse and harvested for seed. Wild type cuttings are also taken simultaneously to serve as negative controls. The cuttings are kept in the bio-dome for 5-7 days and then transplanted to 3 inch pots and then acclimated in the growth chamber for two more days. Subsequently, the cuttings are transferred to the greenhouse, acclimated for approximately 4 days prior to spray. […] g ai/ha saflufenacil plus 1% MSO and/or 25-200 g ai/ha 1,5-dimethyl-6-thioxo-3-(2,2,7-trifluoro-3-oxo-4-(prop-2-ynyl)-3,4-dihydro-2H-benzo[b][1,4]oxazin-6-yl)-1,3,5-triazinane-2,4-dione (CAS 1258836-72-4) plus 1% MSO. Other PPO inhibiting herbicides are also tested in a similar fashion for confirming cross resistance: flumioxazin, butafenacil, acifluorfen, lactofen, bifenox, sulfentrazone, methyl 2-[2-chloro-5-[3-chloro-5-(trifluoromethyl)-2-pyridyl]-4-fluoro-phenoxy]-2-methoxy-acetate, ethyl 2-[2-chloro-5-[3-chloro-5-(trifluoromethyl)-2-pyridyl]-4-fluoro-phenoxy]-2-methoxy-acetate, prop-2-ynyl 2-[2-chloro-5-[3-chloro-5-(trifluoromethyl)-2-pyridyl]-4-fluoro-phenoxy]-2-methoxy-acetate and photosynthesis inhibitor diuron as negative control. […]
The following gives a definition of the injury scores measured above: […]

[1] = soybean T2, transgene L397E_F420M, 25 g ai/ha + 1% v/v MSO
[2] = soybean T2, transgene L397E_F420M, 50 g ai/ha + 1% v/v MSO
[3] = soybean T2, transgene L397E_F420M, 100 g ai/ha + 1% v/v MSO
[4] = soybean T2, transgene L397E_F420M, 200 g ai/ha + 1% v/v MSO
[5] = soybean T2, transgene L397Q_F420M, 25 g ai/ha + 1% v/v MSO
[6] = soybean T2, transgene L397Q_F420M, 50 g ai/ha + 1% v/v MSO
[7] = soybean T2, transgene L397Q_F420M, 100 g ai/ha + 1% v/v MSO
[8] = soybean T2, transgene L397Q_F420M, 200 g ai/ha + 1% v/v MSO
[9] = soybean T2, transgene R128A_F420I event 1, 25 g ai/ha + 1% v/v MSO
[10] = soybean T2, transgene R128A_F420I event 1, 50 g ai/ha + 1% v/v MSO
[11] = soybean T2, transgene R128A_F420I event 1, 100 g ai/ha + 1% v/v MSO
[12] = soybean T2, transgene R128A_F420I event 1, 200 g ai/ha + 1% v/v MSO
[13] = soybean T2, transgene R128A_F420I event 2, 25 g ai/ha + 1% v/v MSO
[14] = soybean T2, transgene R128A_F420I event 2, 50 g ai/ha + 1% v/v MSO
[15] = soybean T2, transgene R128A_F420I event 2, 100 g ai/ha + 1% v/v MSO
[16] = soybean T2, transgene R128A_F420I event 2, 200 g ai/ha + 1% v/v MSO
[17] = soybean T2, transgene R128A_F420I event 3, 25 g ai/ha + 1% v/v MSO
[18] = soybean T2, transgene R128A_F420I event 3, 50 g ai/ha + 1% v/v MSO
[19] = soybean T2, transgene R128A_F420I event 3, 100 g ai/ha + 1% v/v MSO
[20] = soybean T2, transgene R128A_F420I event 3, 200 g ai/ha + 1% v/v MSO
[21] = soybean T2, transgene R128A_F420V, 25 g ai/ha + 1% v/v MSO
[22] = soybean T2, transgene R128A_F420V, 50 g ai/ha + 1% v/v MSO
[23] = soybean T2, transgene R128A_F420V, 100 g ai/ha + 1% v/v MSO
[24] = soybean, Non transgenic, 25 g ai/ha + 1% v/v MSO
[25] = soybean, Non transgenic, 50 g ai/ha + 1% v/v MSO
[26] = soybean, Non transgenic, 100 g ai/ha + 1% v/v MSO
[27] = soybean, Non transgenic, 200 g ai/ha + 1% v/v MSO

Compound	injury on a 0-9 point scale [1]	injury on a 0-9 point scale [2]	injury on a 0-9 point scale [3]	injury on a 0-9 point scale [4]	injury on a 0-9 point scale [5]	injury on a 0-9 point scale [6]	injury on a 0-9 point scale [7]	injury on a 0-9 point scale [8]	injury on a 0-9 point scale [9]	injury on a 0-9 point scale [10]	injury on a 0-9 point scale [11]	injury on a 0-9 point scale [12]	injury on a 0-9 point scale [13]	injury on a 0-9 point scale [14]	injury on a 0-9 point scale [15]	injury on a 0-9 point scale [16]	injury on a 0-9 point scale [17]	injury on a 0-9 point scale [18]	injury on a 0-9 point scale [19]	injury on a 0-9 point scale [20]	other results
CCOC(=O)C(OC)Oc1cc(-c2ncc(C(F)(F)F)cc2Cl)c(F)cc1Cl (stereo not shown) [ethyl 2-[2-chloro-5-[3-chloro-5-(trifluoromethyl)-2-pyridyl]-4-fluoro-phenoxy]-2-methoxy-acetate]	0 (2×) and 9	0 (2×) and 2	3 (2×) and 9	4 and 3 and 5	1 and 9	9 and 3 and 2	2	2 and 9	0 (2×) and 1	0 (2×) and 1	4	4 (2×) and 5	2 and 5 and 1	1 and 2	5 and 9	7 and 4 (2×)	1	1	3 and 2	3 (2×) and 4	injury on a 0-9 point scale [21]: 0; injury on a 0-9 point scale [22]: 5; injury on a 0-9 point scale [23]: 4; injury on a 0-9 point scale (soybean T2, transgene R128A_F420V, 200 g ai/ha + 1% v/v MSO): 4 and 5; injury on a 0-9 point scale [24]: 9; injury on a 0-9 point scale [25]: 9; injury on a 0-9 point scale [26]: 9; injury on a 0-9 point scale [27]: 9
C#CCOC(=O)C(OC)Oc1cc(-c2ncc(C(F)(F)F)cc2Cl)c(F)cc1Cl (stereo not shown) [prop-2-ynyl 2-[2-chloro-5-[3-chloro-5-(trifluoromethyl)-2-pyridyl]-4-fluoro-phenoxy]-2-methoxy-acetate]	1 and 0 and 9	0 (2×) and 1	1	3 (2×) and 4	0	2 and 1 and 0	1 and 2 (2×)	1 (2×) and 2	0	2 and 3 and 4	5	5 (2×) and 4	0	2 (2×) and 3	4 (2×) and 5	5	0	2	1	3 and 4	injury on a 0-9 point scale [21]: 2; injury on a 0-9 point scale [22]: 4 (2×) and 5; injury on a 0-9 point scale [23]: 4; injury on a 0-9 point scale [24]: 9; injury on a 0-9 point scale [25]: 9; injury on a 0-9 point scale [26]: 9; injury on a 0-9 point scale [27]: 9
